Measurements taken from patent US20130309389A1, “GLYCOSIDE BLENDS” (CARGILL, INCORPORATED, priority 2010, published 2013).

Experiment: Trained sensory panel rating of sweetness intensity and bitterness intensity of glycoside solutions
Format: in vivo, human
Details: panel average; for Bitterness: scale 1-15 (caffeine standards); for Sweetness: scale 1-15 (sucrose standards)
Procedure: A 20 person sensory panel was trained to scale sweetness and bitterness. Reference tasting standards were prepared by dissolving respective standard material (sucrose for sweetness and caffeine for bitterness) into reverse osmosis water according to the scale values shown in Table 1 below.
The trained sensory panel evaluated pure and blended solutions of rebaudioside A, rebaudioside B, and rebaudioside D at ratios and concentrations shown in the tables and in FIGS. 1-4. Solutions were made in Evian® water. All solutions were heated to 47° C. for 10 minutes to ensure that all the glycoside material was completely dissolved. The solutions were allowed to cool to room temperature before serving to the panelists. Each solution was given a random 3-digit code and was served to the panelists in random order. Panelists dispensed 1 mL of each solution into their mouths from a pipette. The panelists were then asked to rate the “sweetness intensity” and “bitterness intensity” of the solutions and mark their responses on an un-anchored, 15 cm line ballot. The length of the line directly corresponded to the scale values (1-15) on which the participants were trained.
In order to prepare the panelists' palates, a control solution of commercial rebiana (300 ppm) was the first sample each panelist tasted during a sitting. In between testing samples, the panelists cleansed their palates with water and apple slices. The panelists also waited 5 minutes between each sample. The panelists' responses were measured, compiled, and averaged for each sample.
The figures show the concentration of the blend tested (ppm) as well as the ratio of one glycoside to another in the blend as a percentage. Each blend's sweetness and bitterness was measured by the trained panel. The blend's sweetness is measured as SEV.
Each blend was then compared to an isosweet concentration of the pure glycosides. This value represents the concentration of the pure glycoside needed to achieve the SEV value measured for the blend. Thus, if the value is greater than that of the blend, then a larger concentration of the pure glycoside would be needed to achieve the same sweetness as achieved by the blend (at the lower dosage). The tables also include an isosweet bitterness value for each pure glycoside. This value represents the intensity of bitterness measured for that concentration of pure glycoside. The concentration of the isosweet solution of rebaudioside A, rebaudioside B, or rebaudioside D and the bitterness of the isosweet solutions were calculated by a fit of the pure component sensory response (table 2) to standard psycho-sensory models.

Compound	Bitterness (57 ppm in Evian water)	Sweetness (57 ppm in Evian water)	Bitterness (114 ppm in Evian water)	Sweetness (114 ppm in Evian water)	Bitterness (171 ppm in Evian water)	Sweetness (171 ppm in Evian water)	Bitterness (286 ppm in Evian water)	Sweetness (286 ppm in Evian water)	Bitterness (343 ppm in Evian water)	Sweetness (343 ppm in Evian water)	Bitterness (400 ppm in Evian water)	Sweetness (400 ppm in Evian water)	Bitterness (229 ppm in Evian water)	Sweetness (229 ppm in Evian water)	Bitterness (457 ppm in Evian water)	Sweetness (457 ppm in Evian water)	Bitterness (571 ppm in Evian water)	Sweetness (571 ppm in Evian water)	Bitterness (800 ppm in Evian water)	Sweetness (800 ppm in Evian water)
C=C1C[C@@]23CC[C@H]4[C@@](C)(CCC[C@@]4(C)C(=O)O)[C@@H]2CC[C@]1(O[C@@H]1O[C@H](CO)[C@@H](O)[C@H](O[C@@H]2O[C@H](CO)[C@@H](O)[C@H](O)[C@H]2O)[C@H]1O[C@@H]1O[C@H](CO)[C@@H](O)[C@H](O)[C@H]1O)C3 [Reb B, Rebaudioside B]	3.9	1.8	4.2	2.7	4.3	3.6	5.0	5.8	5.1	6.5	5.8	7.6	–	–	–	–	–	–	–	–
C=C1C[C@@]23CC[C@H]4[C@@](C)(CCC[C@@]4(C)C(=O)O[C@@H]4O[C@H](CO)[C@@H](O)[C@H](O)[C@H]4O)[C@@H]2CC[C@]1(O[C@@H]1O[C@H](CO)[C@@H](O)[C@H](O[C@@H]2O[C@H](CO)[C@@H](O)[C@H](O)[C@H]2O)[C@H]1O[C@@H]1O[C@H](CO)[C@@H](O)[C@H](O)[C@H]1O)C3 [Reb A, Rebaudioside A]	–	–	4.2	3.1	–	–	–	–	6.6	7.4	–	–	5.3	5.7	7.0	8.4	8.4	9.2	9.0	10.1
